Patent US11453674B2, “Heterocyclic compound, preparation method and use thereof in medicine” (SUZHOU SINOVENT PHARMACEUTICALS CO., LTD., priority 2019, dated 2022)

Target: T1, OAT1 (Homo sapiens, UniProt Q4U2R8)
T1 construct: host or cells: HEK293/OAT1 (hygromycin B selection)
T1 sequence (Q4U2R8 1-563): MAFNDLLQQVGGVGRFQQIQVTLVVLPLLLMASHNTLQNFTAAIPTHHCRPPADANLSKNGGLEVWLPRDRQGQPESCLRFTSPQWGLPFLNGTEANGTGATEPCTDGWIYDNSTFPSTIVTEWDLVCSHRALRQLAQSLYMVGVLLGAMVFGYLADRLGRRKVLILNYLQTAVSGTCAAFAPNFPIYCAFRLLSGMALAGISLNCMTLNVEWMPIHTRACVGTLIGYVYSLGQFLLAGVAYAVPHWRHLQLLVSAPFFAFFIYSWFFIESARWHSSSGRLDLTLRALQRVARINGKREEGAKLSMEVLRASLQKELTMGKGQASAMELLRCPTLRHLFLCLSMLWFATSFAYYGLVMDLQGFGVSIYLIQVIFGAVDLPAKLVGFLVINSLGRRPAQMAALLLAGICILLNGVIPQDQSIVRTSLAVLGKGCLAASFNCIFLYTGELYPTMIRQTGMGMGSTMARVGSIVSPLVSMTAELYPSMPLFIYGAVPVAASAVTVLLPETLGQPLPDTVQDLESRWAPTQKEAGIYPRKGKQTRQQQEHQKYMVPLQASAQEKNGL
Assay: Inhibition of 6-carboxyfluorescein uptake in HEK293/OAT1 cells
Type: cell-based
Conditions: ratio of OAT1 IC50 to hURAT1 IC50 (selectivity)
Protocol: 1. Reagents and Consumables
2. Culture Media and Solutions
Thaw medium: 90% DMEM+10% FBS+1× Pen/Strep, preserved at 4° C. for later use.
Culture medium: 90% DMEM+10% FBS+1× Pen/Strep+100 μg/mL Hygromycin B, preserved at 4° C. for later use.
5× Matrigel: 1 vial of Matrigel was thawed overnight at 4° C., then diluted to 500 mL with cold DMEM. The resulting solution was preserved at 4° C. for later use after subpackaging.
Uptake assay buffer: 487.5 mL HBSS buffer was mixed with 12.5 mL 1M HEPES, with the final HEPES concentration being 25 mM. This was prepared right before the experiment.
30 mM probenecid: 2 mg of the powder was dissolved in 233.62 μL of 100% DMSO. The resulting solution was preserved at −20° C. for later use after subpackaging.
The resulting solution was preserved at −20° C. for later use after subpackaging.
The resulting solution was preserved away from light at 4° C. for later use after subpackaging.
Envision multimode plate reader (with parameters as follows)
Emission wavelength: 590 nm
4. Experimental Procedures
The cells were quickly taken out from a liquid nitrogen tank and shaken in a water bath at 37° C. until completely thawed. The cell suspension was quickly added to a pre-heated culture medium and centrifuged at 1000 rpm for 5 min. The supernatant was discarded. A fresh pre-heated culture medium was added for resuspension. The cell suspension was transferred into a 100 mm dish and incubated at 37° C. at 5% CO2.
Typically, the cells were passaged every 2-3 days in a ratio of 1:3 to 1:5.
5× Matrigel was added to a 384-well cell plate at 5 μL/well for incubation in an incubator at 37° C. for 30 min, followed by digestion.
Cells were collected after digestion, counted, resuspended at 1×10^6 cells/mL using a culture medium, and added to a coated plate at 60 μL/well by using a Multidrop Combi to give a cell density of 6×10^4 cells/well, followed by incubating overnight at 37° C. at 5% CO2.
3) Preparation of Uptake Assay Buffer
On the day of experiment, fresh buffer was prepared as needed.
4) Preparation of Compounds (Using ECHO)
Working solutions of 11 concentrations were prepared for plotting a curve with stock solutions of 3 concentrations using PlateMap. The 3 concentrations were 30 mM, 0.3 mM, 0.003 mM, all formulated in DMSO.
5) Preparation of a Mixed Solution of 6-Carboxyfluorescein (6 μM) and Compounds
According to amount used, 6-carboxyfluorescein (1 mM) was diluted with uptake assay buffer to give a diluted 6-carboxyfluorescein solution (6 μM). […] The mixture was preserved away from light for later use. The concentration of DMSO was 2% at this time.
The cells were incubated overnight before the culture medium was carefully removed. Then 80 μL of uptake assay buffer was added to each well at room temperature for washing the cells 3 times. After washing, 20 μL of uptake assay buffer was added to each well.
The mixed solution of 6-CF (6 μM) and compounds, prepared in step 5, was transferred to a cell plate at 20 μL/well with Bravo. The mixed solution was centrifuged at 400 rpm for 1 min, and incubated away from light at room temperature for 10 min. At this time, the concentration of 6-CF became 3 μM, the concentration of the compound became the final concentration, and the concentration of DMSO became 1%.
The cells were washed 3 times with pre-cooled uptake assay buffer at 80 μL/well, to remove unbound 6-CF.
The plate was read on the Envision. The data were recorded and processed to calculate IC50.
According to the fluorescence signals of HPE and ZPE on each cell plate, the inhibition rate (%) of the compound in each well on the cell plate was calculated.
The XLfit software was used to plot the curve for calculating the IC50 values of the compounds. The IC50 value of the positive compound was also one of the criteria for controlling the quality of each experiment.

Compound	IC50, OAT1/IC50, hURAT1
CCc1nc2ncc(Br)cn2c1C(=O)c1cc(Br)c(O)c(Br)c1 [Example 3, (6-bromo-2-ethylimidazo[1,2-a]pyrimidin-3-yl)(3,5-dibromo-4-hydroxyphenyl)methanone]	13.8
CCc1nc2ncc(F)cn2c1C(=O)c1cc(Br)c(O)c(Br)c1 [Example 4, (3,5-dibromo-4-hydroxyphenyl)(2-ethyl-6-fluoroimidazo[1,2-a]pyrimidin-3-yl)methanone]	55.0
CCc1nc2ncc(C(F)(F)F)cn2c1C(=O)c1cc(Br)c(O)c(Br)c1 [Example 5, (3,5-dibromo-4-hydroxyphenyl)(2-ethyl-6-(trifluoromethyl)imidazo[1,2-a]pyrimidin-3-yl)methanone]	34.4
CCc1nc2ncc(Cl)cn2c1C(=O)c1cc(Br)c(O)c(Br)c1 [Example 6, (6-chloro-2-ethylimidazo[1,2-a]pyrimidin-3-yl)(3,5-dibromo-4-hydroxyphenyl)methanone]	33.6
CCn1nc2ccc(F)cc2c1C(=O)c1cc(Br)c(O)c(Br)c1 [Example 9, (3,5-dibromo-4-hydroxyphenyl)(2-ethyl-5-fluoro-2H-indazol-3-yl) methanone]	7.6
CCc1nc2ncc(F)cn2c1C(=O)c1cc(Br)c(O)c(C#N)c1 [Example 14, 3-bromo-5-(2-ethyl-6-fluoroimidazo[1,2-a]pyrimidine-3-carbonyl)-2-hydroxybenzonitrile]	3.5
CCn1nc2ccncc2c1C(=O)c1cc(Br)c(O)c(Br)c1 [Example 16, (3,5-dibromo-4-hydroxyphenyl)(2-ethyl-2H-pyrazolo[4,3-c]pyridin-3-yl)methanone]	17.4
CCc1nc2ncc(F)cn2c1C(=O)c1cc(Br)c(O)c(C(F)(F)F)c1 [Example 18, (3-bromo-4-hydroxy-5-(trifluoromethyl)phenyl)(2-ethyl-6-fluoroimidazo[1,2-a]pyrimidin-3-yl)methanone]	24.5
CCc1nc2ncccn2c1C(=O)c1cc(Br)c(O)c(C#N)c1 [Example 22, 3-bromo-5-(2-ethylimidazo[1,2-a]pyrimidine-3-carbonyl)-2-hydroxybenzonitrile]	2.0

Now from value to compound:

IC50, OAT1/IC50, hURAT1	Compound
14.2	CCc1nc2cc(C(F)(F)F)ncn2c1C(=O)c1cc(Br)c(O)c(Br)c1 [Example 7, (3,5-dibromo-4-hydroxyphenyl)(2-ethyl-7-(trifluoromethyl)imidazo[1,2-c]pyrimidin-3-yl)methanone]
8.0	CCc1nc2ncccn2c1C(=O)c1cc(Br)c(O)c(Br)c1 [Example 20, 2,6-dibromo-4-([2-ethylimidazo[1,2-a]pyrimidin-3-yl]carbonyl) phenol]
3.8	CCc1nc2cc(Cl)ncn2c1C(=O)c1cc(Br)c(O)c(Br)c1 [Example 21, (7-chloro-2-ethylimidazo[1,2-f]pyrimidin-3-yl)(3,5-dibromo-4-hydroxyphenyl)methanone]
5.2	CCc1nc2ncccn2c1C(=O)c1cc(Br)c(O)c(C(F)(F)F)c1 [Example 23, (3-bromo-4-hydroxy-5-(trifluoromethyl)phenyl)(2-ethylimidazo[1,2-a]pyrimidin-3-yl)methanone]
